Residue numbers refer to the chain shown, from its start. Names and notes keep the numbering of the source. “Also recorded” adds a separate entry of the source. Blank lines part the entries; values can stand above or below the molecule they belong to.
Assays:
[1] = Surface plasmon resonance, binding to PC/PIP2 liposomes on sensor chip; conditions: for Kd: SPR equilibrium binding, PC/PIP2 (20∶1) liposomes, 25°C, HBSS, read-out: equilibrium dissociation constant KD; for binding to PIP2 containing liposomes (in words): SPR, PC/PIP2 liposomes
Description: All SPR measurements were performed at 25°C using a liposome-coated NLC chip in aProteOn XPR36 Protein Interaction Array System (Bio-rad, Hercules, CA, USA). […] Lipid solution (10 mg/ml) in HBSS was mixed with 8 µM oligonucleotide 5′-[…]-3′, modified at the 3′ end with cholesterol (Generi-Biotech, Hradec Kralove, Czech Republic), and the mixture was extruded using a LiposoFast Basic apparatus (Avestin Europe, Mannheim, Germany) with a polycarbonate membrane with a 100-nm pore diameter (Avestin Europe, Mannheim, Germany). The lipid/DNA ratio was 1200∶1. The vesicles were then incubated with 8 µM anti-sense oligonucleotide 5′-[…]-3′, modified at the 5′ end with biotin (Generi-Biotech, Hradec Kralove, Czech Republic), and washed by centrifugation (50,000 g) for 30 min at 4°C. The vesicles were diluted to a final concentration of 1 mg/ml in HBSS and immobilized on the streptavidin-coated NLC chip (Bio-rad, Hercules, CA, USA) surface at a flow rate of 25 µl/min for 10 min to give ∼800 −1500 resonance units (RU). All SPR measurements were carried out in HBSS at a flow rate of 30 µl/min for both the association and dissociation phase of the sensograms. For determining equilibrium binding, the association phases of five different concentrations of each protein were brought to near-equilibrium values (Req). Surfaces were typically regenerated with 50 µl of 1 M NaCl and 20 mM glycin buffer, pH 3.5. The sensograms were corrected for sensor background by interspot referencing (the sites within the 6×6 array which are not exposed to ligand immobilization but are exposed to analyte flow), and double referenced by subtraction of the analyte using a “blank” injection. Assuming a Langmuir-type binding between the protein (P) and protein binding sites (S) on vesicles (i.e. P + S ↔ PS), Req values were then plotted versus protein concentration (P0), and the KD value was determined by nonlinear least-squares analysis of the binding isotherm using the equation Req = Rmax/(1+KD/P0).

[2] = system: CaM; parameters: method as in PMID 18755153; conditions: TRPV1-CT fusion protein mutants; cited from earlier work
[3] = Control steady-state fluorescence anisotropy with NBD-PC; format: binding; conditions: NBD-PC 10 nM
Description: Peptides were dissolved in 50 mM Tris-HCl (pH 7.5), 100 mM NaCl buffer and were used for measurements of fluorescence anisotropy. Steady-state fluorescence anisotropy measurements were performed in an ISS Photon Counting Steady-State Spectrofluorimeter (ISS PC1TM) at room temperature with a PIP2-Bodipy® FL C5, C6-PtdIns(4,5)P2 molecular probe (Invitrogen, cat. n. B22627, Figure S3A), hereafter denoted as PIP2-Bodipy and the control experiment was done with 16∶0-06∶0 NBD PC 1-palmitoyl-2-{6-[(7-nitro-2-1,3-benzoxadiazol-4-yl)amino]hexanoyl}-sn-glycero-3-phosphocholine in chloroform (NBD-PC), (Avanti Polar Lipids, Inc. Cat. n. 810130C, Figure S3B) The PIP2-Bodipy probe was diluted in deionized H2O. The final concentration of the fluorescently labeled probe in the measuring buffer in the cuvette was 10 nM and increasing amounts of peptides and fusion protein TRPV1 respectively were titrated into the cuvette. […] At each peptide concentration, steady-state fluorescence anisotropy was recorded. The fraction of TRPV1s regions or their mutants bound to fluorescent probe was determined from the anisotropy changes using Eq. (1), where FB is the fraction bound, rmin and rmax are the anisotropies of the free and bound PIP2-Bodipy with TRPV1-CT, pTRPV1 regions or its mutants, robs is the observed anisotropy, and Q is the ratio of the intensities of the free and bound protein (fmax/fmin). […]

[4] = ELISA, influence of liposome composition on binding to immobilized TRPV1-CT; conditions: liposomes of different composition
Description: The lipids L-α-phosphatidylinositol-4,5-bisphosphate (PIP2), 1,2-dimyristoyl-sn-glycero-3- Phosphatidylserine (PS), 1,2-dimyristoyl-sn-glycero-3-phosphocholine (PC) and 1,2-dimyristoyl-sn-glycero-3- Phosphatidylethanolamine (PE) were obtained from Avanti Polar Lipis, Inc. A stock solution of each lipid was prepared in chloroform, except for PIP2 stock solution, which was prepared in a chloroform:methanol (2∶1) mixture. Liposomes of the following compositions were prepared: PC, PC/PIP2 97/3%, PC/PIP2 90/10%, PC/PIP2/PS 70/10/20%, PC/PIP2/PS/PE 40/10/20/30%, PC/PIP2/PE 70/10/20%, PC/PIP2/PE 77/3/20%, PC/PE/PS 50/30/20% by mixing appropriate volumes of the stock solutions. After being dried under an N2 stream, lipid films were hydrated with 1× HBSS buffer containing 8 µM oligonucleotide 5′-[…]-3′, modified at the 3′ end with cholesterol (Generi-Biotech, Hradec Kralove, Czech Republic)- followed by extrusion 20 times through a polycarbonate membrane with a 100-nm pore diameter (Avestin Europe, Mannheim, Germany). Finally 8 µM complementary oligonucleotide Biotin conjugate 5′-[…]-3′ (Generi-Biotech, Hradec Kralove, Czech Republic) was added to the liposome mixture. A 20-min incubation was followed by centrifugation and washing steps to remove the unbound oligonucleotide-Biotin conjugate.
96-well micro titer plates were used. […] Absorbance was read at 490 nm using a micro plate reader.

[5] = Control SPR with liposomes containing only phosphatidylcholine; format: binding; conditions: liposomes not containing PIP2
Description: All SPR measurements were performed at 25°C using a liposome-coated NLC chip in aProteOn XPR36 Protein Interaction Array System (Bio-rad, Hercules, CA, USA). Liposomes (100 nm in diameter) were made from 1,2-dimyristoyl-sn-glycero-3-phosphocholine (PC) and L-α-phosphatidylinositol-4,5-bisphosphate (PIP2) (Avanti Lipids, Alabaster, AL, USA) at a molar ratio of 20∶1 (PC/PIP2). Lipid solution (10 mg/ml) in HBSS was mixed with 8 µM oligonucleotide 5′-[…]-3′, modified at the 3′ end with cholesterol (Generi-Biotech, Hradec Kralove, Czech Republic), and the mixture was extruded using a LiposoFast Basic apparatus (Avestin Europe, Mannheim, Germany) with a polycarbonate membrane with a 100-nm pore diameter (Avestin Europe, Mannheim, Germany). The lipid/DNA ratio was 1200∶1. The vesicles were then incubated with 8 µM anti-sense oligonucleotide 5′-[…]-3′, modified at the 5′ end with biotin (Generi-Biotech, Hradec Kralove, Czech Republic), and washed by centrifugation (50,000 g) for 30 min at 4°C. […] Assuming a Langmuir-type binding between the protein (P) and protein binding sites (S) on vesicles (i.e. P + S ↔ PS), Req values were then plotted versus protein concentration (P0), and the KD value was determined by nonlinear least-squares analysis of the binding isotherm using the equation Req = Rmax/(1+KD/P0).

[6] = Steady state fluorescence anisotropy binding assay with PIP2-Bodipy; conditions: for Kd: PIP2-Bodipy 10 nM titrated with protein or peptide, room temperature, read-out: equilibrium dissociation constant KD
Description: Peptides were dissolved in 50 mM Tris-HCl (pH 7.5), 100 mM NaCl buffer and were used for measurements of fluorescence anisotropy. Steady-state fluorescence anisotropy measurements were performed in an ISS Photon Counting Steady-State Spectrofluorimeter (ISS PC1TM) at room temperature with a PIP2-Bodipy® FL C5, C6-PtdIns(4,5)P2 molecular probe (Invitrogen, cat. n. B22627, Figure S3A), hereafter denoted as PIP2-Bodipy and the control experiment was done with 16∶0-06∶0 NBD PC 1-palmitoyl-2-{6-[(7-nitro-2-1,3-benzoxadiazol-4-yl)amino]hexanoyl}-sn-glycero-3-phosphocholine in chloroform (NBD-PC), (Avanti Polar Lipids, Inc. Cat. n. 810130C, Figure S3B) The PIP2-Bodipy probe was diluted in deionized H2O. The final concentration of the fluorescently labeled probe in the measuring buffer in the cuvette was 10 nM and increasing amounts of peptides and fusion protein TRPV1 respectively were titrated into the cuvette. PIP2-Bodipy excitation and emission wavelengths were set to 500 nm and 512 nm and for NBD – PC 460 nm and 534 nm respectively. At each peptide concentration, steady-state fluorescence anisotropy was recorded. The fraction of TRPV1s regions or their mutants bound to fluorescent probe was determined from the anisotropy changes using Eq. (1), where FB is the fraction bound, rmin and rmax are the anisotropies of the free and bound PIP2-Bodipy with TRPV1-CT, pTRPV1 regions or its mutants, robs is the observed anisotropy, and Q is the ratio of the intensities of the free and bound protein (fmax/fmin). All experiments were carried out in at least triplicate. [drawing 1] (1)
The FB was plotted against the TRPV1 peptides and fusion proteins concentration respectively and fitted using Eq. (2) to determine the equilibrium dissociation constant (KD). Non-linear data fitting was performed using the package SigmaPlot 2000 (6.1) SPSS Inc. P1 is the concentration of PIP2-Bodipy and P2 is the concentration of TRPV1 fusion protein or TRPPV1 synthetic peptides. [drawing 2] (2)

Molecule: R778A: single alanine mutant of TRPV1-CT (712–838) thioredoxin fusion protein
CaM binding (in words) [2]: did not prevent CaM binding | Kd [1]: > 150 µM | binding to PIP2 containing liposomes (in words) [1]: total loss of binding affinity; also recorded: inhibited the PIP2 binding

Molecule: R771A: single alanine mutant of TRPV1-CT (712–838) thioredoxin fusion protein
CaM binding (in words) [2]: significantly inhibits the CaM binding | binding to PIP2 containing liposomes (in words) [1]: preserves its binding ability to PIP2

Molecule: thioredoxin: fusion tag protein titrated alone as control [reference compound]
binding to PIP2-Bodipy (in words) ([6]; PIP2-Bodipy 10 nM): no thioredoxin–PIP2 binding

B1: K770A/R778A/R785A: triple alanine mutant of TRPV1-CT (712–838) thioredoxin fusion protein (protein, UniProt O35433 712-838, looked up, variant K770A R778A R785A)
chain: FLKCMRKAFRSGKLLQVGFTPDGKDDYRWCFRVDEVNWTTWNTNVGIINEDPGNCEGVARTLSFSLASGRVSGANWKNFALVPLLRDASTRDRHATQQEEVQLKHYTGSLKPEDAEVFKDSMVPGEK
modifications: thioredoxin fusion, His tag
notes: triple alanine mutant of TRPV1-CT (712–838) thioredoxin fusion protein
Kd [1]: > 150 µM | binding to PIP2 containing liposomes (in words) [1]: total loss of binding affinity; also recorded: avoided PIP2 binding totally

Now from value to molecule, other results behind:

Kd [1]: > 150 µM
Molecule: R771A/R778A: double alanine mutant of TRPV1-CT (712–838) thioredoxin fusion protein
binding to PIP2 containing liposomes (in words) [1]: total loss of binding affinity; also recorded: avoided PIP2 binding totally

Kd [1]: 33.5 ± 11.7 µM | binding to PIP2 containing liposomes (in words) [1]: suppressed this interaction partially
Molecule: R771A/R781A: double alanine mutant of TRPV1-CT (712–838) thioredoxin fusion protein

Kd [1]: 3 ± 0.4 µM | SPR binding response ([1]; protein washed over PC/PIP2 liposome chip after regeneration step): approx. 1000 RU | Kd ([6]; listed as WT TRPV1-CT): 3.5 ± 0.9 µM | Kd [6]: 3.48 µM
Molecule: TRPV1-CT: rat TRPV1 C-tail amino acids 712–838 expressed in E. coli as fusion protein with thioredoxin and 6× His tags
interaction with NBD PC (in words) [3]: no interaction | selectivity for PIP2 over other lipids (in words) [4]: modest selectivity for PIP2 over other used lipids | interaction with liposomes containing only PC (in words) [5]: just a weak interaction was detected

Kd [1]: 9.1 ± 3.8 µM
Molecule: R781A: single alanine mutant of TRPV1-CT (712–838) thioredoxin fusion protein

Kd [1]: 5.8 ± 0.8 µM | binding to PIP2 containing liposomes (in words) [1]: suppressed this interaction partially
Molecule: K770A/R785A: double alanine mutant of TRPV1-CT (712–838) thioredoxin fusion protein

Kd [1]: 3.6 ± 0.5 µM
B2: K770A/R781A/R785A: triple alanine mutant of TRPV1-CT (712–838) thioredoxin fusion protein (protein, UniProt O35433 712-838, looked up, variant K770A R781A R785A)
chain: B1 chain with A67R, R70A
modifications: thioredoxin fusion, His tag
notes: as for B1

— article PMC3485206, “Integrative Binding Sites within Intracellular Termini of TRPV1 Receptor” (PLoS ONE, 2012)
